Results as given in article PMC6943732, “The Disulfide Stress Response and Protein S-thioallylation Caused by Allicin and Diallyl Polysulfanes in Bacillus subtilis as Revealed by Transcriptomics and Proteomics” (Antioxidants, 2019).

What was measured:
Assay type in all cases: cell-based
GlnA = biological target: T1, GlnA (Bacillus subtilis, UniProt P12425); experiment: shotgun Orbitrap LC-MS/MS of S-thioallylated Cys peptides (+[…] Da); details: covalent
T1 construct: native, in treated cells, shotgun proteomics of tryptic peptides
T1 sequence (P12425 2-444): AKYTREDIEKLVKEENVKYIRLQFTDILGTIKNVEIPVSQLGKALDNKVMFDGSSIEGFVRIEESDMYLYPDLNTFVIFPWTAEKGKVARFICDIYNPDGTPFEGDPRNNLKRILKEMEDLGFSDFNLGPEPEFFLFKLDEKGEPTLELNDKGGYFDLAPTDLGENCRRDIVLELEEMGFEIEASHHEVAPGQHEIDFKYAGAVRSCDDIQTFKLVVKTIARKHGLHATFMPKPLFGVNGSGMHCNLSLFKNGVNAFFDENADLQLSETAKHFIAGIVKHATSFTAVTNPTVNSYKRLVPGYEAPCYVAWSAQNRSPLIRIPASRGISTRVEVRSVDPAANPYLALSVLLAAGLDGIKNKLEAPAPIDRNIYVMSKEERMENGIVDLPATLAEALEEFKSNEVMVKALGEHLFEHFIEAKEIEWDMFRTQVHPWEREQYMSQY

YxjG = biological target: T2, YxjG (Bacillus subtilis, UniProt P42318); experiment: as above; details: covalent, redox-sensitive Cys
T2 construct: native, in treated cells, shotgun proteomics of tryptic peptides
T2 sequence (P42318 1-378): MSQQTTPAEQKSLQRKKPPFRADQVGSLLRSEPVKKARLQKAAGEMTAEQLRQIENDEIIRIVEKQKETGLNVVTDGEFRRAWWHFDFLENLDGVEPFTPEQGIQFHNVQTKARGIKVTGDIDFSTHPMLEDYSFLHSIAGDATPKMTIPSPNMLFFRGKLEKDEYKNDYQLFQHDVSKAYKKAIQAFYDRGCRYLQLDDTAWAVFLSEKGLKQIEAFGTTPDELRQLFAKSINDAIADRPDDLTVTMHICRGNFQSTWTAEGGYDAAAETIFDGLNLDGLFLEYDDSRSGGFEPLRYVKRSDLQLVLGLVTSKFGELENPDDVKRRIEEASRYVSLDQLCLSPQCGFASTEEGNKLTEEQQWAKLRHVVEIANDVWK

TufA (EF-Tu) = biological target: T3, TufA (EF-Tu) (Bacillus subtilis, UniProt P33166); experiment: as above; details: covalent, Cys83
T3 construct: gene tuf; native, in treated cells, shotgun proteomics of tryptic peptides

SerA = biological target: T4, SerA (Bacillus subtilis, UniProt P35136); experiment: as above; details: covalent, redox-sensitive Cys
T4 construct: native, in treated cells, shotgun proteomics of tryptic peptides
T4 sequence (P35136 1-525): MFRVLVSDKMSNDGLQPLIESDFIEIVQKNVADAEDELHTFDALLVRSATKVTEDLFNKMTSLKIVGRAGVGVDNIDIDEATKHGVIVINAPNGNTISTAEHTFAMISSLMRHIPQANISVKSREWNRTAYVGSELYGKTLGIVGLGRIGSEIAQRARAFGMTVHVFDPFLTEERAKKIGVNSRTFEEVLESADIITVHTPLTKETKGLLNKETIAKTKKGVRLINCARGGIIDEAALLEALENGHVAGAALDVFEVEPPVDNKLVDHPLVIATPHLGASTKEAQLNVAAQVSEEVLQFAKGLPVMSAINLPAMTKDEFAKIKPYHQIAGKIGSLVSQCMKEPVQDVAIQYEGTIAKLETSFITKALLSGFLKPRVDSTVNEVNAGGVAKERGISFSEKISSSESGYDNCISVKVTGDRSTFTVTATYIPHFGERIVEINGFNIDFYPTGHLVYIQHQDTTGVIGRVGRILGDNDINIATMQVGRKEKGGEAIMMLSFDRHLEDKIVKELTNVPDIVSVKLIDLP

MetE = biological target: T5, MetE (Bacillus subtilis, UniProt P80877); experiment: as above; details: covalent, Cys719/Cys730
T5 construct: native, in treated cells, shotgun proteomics of tryptic peptides

GuaB = biological target: T6, GuaB (Bacillus subtilis, UniProt P21879); experiment: as above; details: covalent, active site Cys308
T6 construct: native, in treated cells, shotgun proteomics of tryptic peptides

PpaC = biological target: T7, PpaC (Bacillus subtilis, UniProt P37487); experiment: as above; details: covalent, active site Cys158
T7 construct: native, in treated cells, shotgun proteomics of tryptic peptides

FusA (EF-G) = biological target: T8, FusA (EF-G) (Bacillus subtilis, UniProt P80868); experiment: as above; details: covalent, Cys239
T8 construct: native, in treated cells, shotgun proteomics of tryptic peptides

CatR = biological target: T9, CatR (Bacillus subtilis, UniProt O32238); experiment: IP and Orbitrap LC-MS/MS of S-thioallylated Cys peptides (+[…] Da); details: covalent; allicin-treated cells; Cys7
T9 construct: gene yvaP; native, immunoprecipitated with polyclonal antibody from allicin-treated cells
T9 sequence (O32238 1-108): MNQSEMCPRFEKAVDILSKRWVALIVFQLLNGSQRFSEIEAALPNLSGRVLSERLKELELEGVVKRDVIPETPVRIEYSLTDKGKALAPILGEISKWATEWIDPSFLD

HypR = biological target: T10, HypR (Bacillus subtilis, UniProt P37486); experiment: as above; details: covalent; allicin-treated cells; Cys14
T10 construct: gene yybR; native, immunoprecipitated with polyclonal antibody from allicin-treated cells

OhrR-FLAG = biological target: T11, OhrR-FLAG (Bacillus subtilis, UniProt O34777); experiment: as above; details: covalent; cells treated with 90 µM allicin, 30 min; Cys15 (b28 names the redox-sensing residue Cys22)
T11 construct: FLAG-tagged, expressed in B. subtilis, immunoprecipitated from allicin-treated cells
T11 sequence (O34777 1-147): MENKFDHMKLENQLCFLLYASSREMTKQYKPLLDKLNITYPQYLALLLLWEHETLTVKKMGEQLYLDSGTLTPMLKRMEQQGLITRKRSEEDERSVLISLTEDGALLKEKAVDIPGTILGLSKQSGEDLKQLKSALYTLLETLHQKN

YodB = biological target: T12, YodB (Bacillus subtilis, UniProt O34844); experiment: as above; details: covalent; allicin-treated cells; Cys101 (Cys6 peptide not identified)
T12 construct: native, immunoprecipitated with polyclonal antibody from allicin-treated cells

[1] = cells treated with 92 µM DAS4, 30 min
[2] = cells treated with 90 µM allicin, 30 min

T6 sequence (P21879 whole entry): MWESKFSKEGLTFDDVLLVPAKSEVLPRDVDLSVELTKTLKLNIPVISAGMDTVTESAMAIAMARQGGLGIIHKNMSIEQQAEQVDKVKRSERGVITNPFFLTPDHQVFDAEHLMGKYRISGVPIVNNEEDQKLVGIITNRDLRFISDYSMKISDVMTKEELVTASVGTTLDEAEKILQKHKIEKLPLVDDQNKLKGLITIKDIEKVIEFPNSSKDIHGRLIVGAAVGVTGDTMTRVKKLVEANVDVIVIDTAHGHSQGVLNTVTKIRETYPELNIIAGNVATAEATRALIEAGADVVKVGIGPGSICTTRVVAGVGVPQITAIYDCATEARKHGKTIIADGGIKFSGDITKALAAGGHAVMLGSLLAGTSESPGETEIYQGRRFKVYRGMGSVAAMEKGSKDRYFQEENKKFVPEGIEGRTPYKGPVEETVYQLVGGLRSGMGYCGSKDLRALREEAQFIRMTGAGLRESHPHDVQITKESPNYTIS
T5 sequence (P80877 2-762): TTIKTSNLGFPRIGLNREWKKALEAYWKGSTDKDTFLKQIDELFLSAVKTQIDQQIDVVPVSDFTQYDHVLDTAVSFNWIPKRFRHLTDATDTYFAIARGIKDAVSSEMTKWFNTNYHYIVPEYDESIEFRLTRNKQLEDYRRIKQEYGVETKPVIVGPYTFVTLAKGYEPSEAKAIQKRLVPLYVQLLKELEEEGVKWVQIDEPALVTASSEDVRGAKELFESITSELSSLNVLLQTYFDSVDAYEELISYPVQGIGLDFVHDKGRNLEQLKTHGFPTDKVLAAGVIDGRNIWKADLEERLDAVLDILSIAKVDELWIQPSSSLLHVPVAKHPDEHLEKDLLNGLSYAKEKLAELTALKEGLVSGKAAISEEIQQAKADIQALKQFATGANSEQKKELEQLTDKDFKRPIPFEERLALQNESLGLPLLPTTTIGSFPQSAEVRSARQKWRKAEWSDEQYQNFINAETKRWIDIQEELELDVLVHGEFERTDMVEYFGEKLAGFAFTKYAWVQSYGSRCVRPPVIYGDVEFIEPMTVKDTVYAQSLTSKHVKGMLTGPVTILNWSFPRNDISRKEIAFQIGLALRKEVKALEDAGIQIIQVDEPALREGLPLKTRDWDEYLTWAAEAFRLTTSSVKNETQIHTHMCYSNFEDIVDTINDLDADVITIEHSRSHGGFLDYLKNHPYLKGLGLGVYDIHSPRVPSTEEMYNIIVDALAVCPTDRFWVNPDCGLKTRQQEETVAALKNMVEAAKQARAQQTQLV
T8 sequence (P80868 2-692): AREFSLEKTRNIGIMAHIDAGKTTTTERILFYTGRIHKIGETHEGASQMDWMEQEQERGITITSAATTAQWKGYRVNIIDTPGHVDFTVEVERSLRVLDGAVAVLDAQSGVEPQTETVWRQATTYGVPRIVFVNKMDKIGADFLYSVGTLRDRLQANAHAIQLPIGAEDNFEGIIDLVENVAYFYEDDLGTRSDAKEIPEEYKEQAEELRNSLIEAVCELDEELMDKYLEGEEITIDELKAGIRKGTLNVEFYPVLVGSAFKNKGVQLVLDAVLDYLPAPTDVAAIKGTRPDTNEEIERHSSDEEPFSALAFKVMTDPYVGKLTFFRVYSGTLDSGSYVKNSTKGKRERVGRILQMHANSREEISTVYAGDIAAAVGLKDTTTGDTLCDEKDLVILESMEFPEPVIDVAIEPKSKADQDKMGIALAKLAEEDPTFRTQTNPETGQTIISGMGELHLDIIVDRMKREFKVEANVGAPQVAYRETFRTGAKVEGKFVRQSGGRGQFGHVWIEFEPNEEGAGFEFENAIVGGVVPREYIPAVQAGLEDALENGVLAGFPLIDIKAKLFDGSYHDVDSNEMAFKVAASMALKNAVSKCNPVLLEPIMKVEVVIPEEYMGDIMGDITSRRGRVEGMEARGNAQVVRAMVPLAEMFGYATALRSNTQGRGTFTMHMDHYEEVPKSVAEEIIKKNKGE
T7 sequence (P37487 whole entry): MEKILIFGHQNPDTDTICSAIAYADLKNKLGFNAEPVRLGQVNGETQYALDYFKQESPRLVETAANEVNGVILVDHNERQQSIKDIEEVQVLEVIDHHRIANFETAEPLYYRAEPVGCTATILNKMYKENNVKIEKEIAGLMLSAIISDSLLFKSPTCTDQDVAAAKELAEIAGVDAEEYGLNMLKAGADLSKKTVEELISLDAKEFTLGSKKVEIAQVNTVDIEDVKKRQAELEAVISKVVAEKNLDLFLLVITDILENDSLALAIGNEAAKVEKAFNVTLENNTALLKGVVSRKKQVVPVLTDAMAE
T3 sequence (P33166 2-396): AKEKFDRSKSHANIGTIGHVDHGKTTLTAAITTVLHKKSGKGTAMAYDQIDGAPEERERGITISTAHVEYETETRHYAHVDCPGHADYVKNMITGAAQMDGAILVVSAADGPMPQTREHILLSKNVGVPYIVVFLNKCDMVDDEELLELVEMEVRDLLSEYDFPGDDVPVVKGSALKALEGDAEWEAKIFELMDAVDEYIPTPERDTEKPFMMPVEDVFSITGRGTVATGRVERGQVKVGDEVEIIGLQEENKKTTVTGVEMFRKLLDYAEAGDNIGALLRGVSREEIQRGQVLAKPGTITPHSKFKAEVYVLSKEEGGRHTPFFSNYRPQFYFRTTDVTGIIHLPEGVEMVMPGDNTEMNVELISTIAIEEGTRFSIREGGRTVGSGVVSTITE
T12 sequence (O34844 whole entry): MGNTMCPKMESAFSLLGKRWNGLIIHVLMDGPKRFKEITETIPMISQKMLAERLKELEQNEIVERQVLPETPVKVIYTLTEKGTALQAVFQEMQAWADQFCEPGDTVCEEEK
T10 sequence (P37486 whole entry): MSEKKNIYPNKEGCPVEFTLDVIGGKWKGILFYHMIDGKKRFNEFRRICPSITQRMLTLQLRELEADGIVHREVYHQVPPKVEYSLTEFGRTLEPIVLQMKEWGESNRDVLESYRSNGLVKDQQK

| SMILES | shotgun Orbitrap LC-MS/MS of S-thioallylated Cys peptides (+72 Da) (GlnA; [1]) | shotgun Orbitrap LC-MS/MS of S-thioallylated Cys peptides (+72 Da) (YxjG; [1]) | shotgun Orbitrap LC-MS/MS of S-thioallylated Cys peptides (+72 Da) (TufA (EF-Tu); [1]) | shotgun Orbitrap LC-MS/MS of S-thioallylated Cys peptides (+72 Da) (SerA; [1]) | shotgun Orbitrap LC-MS/MS of S-thioallylated Cys peptides (+72 Da) (MetE; [1]) | shotgun Orbitrap LC-MS/MS of S-thioallylated Cys peptides (+72 Da) (GuaB; [1]) | shotgun Orbitrap LC-MS/MS of S-thioallylated Cys peptides (+72 Da) (PpaC; [1]) | shotgun Orbitrap LC-MS/MS of S-thioallylated Cys peptides (+72 Da) (FusA (EF-G); [1]) | IP and Orbitrap LC-MS/MS of S-thioallylated Cys peptides (+72 Da) (CatR) | shotgun Orbitrap LC-MS/MS of S-thioallylated Cys peptides (+72 Da) (GlnA; cells treated with 90 µM allicin, 30 min, conserved Cys) | IP and Orbitrap LC-MS/MS of S-thioallylated Cys peptides (+72 Da) (HypR) | shotgun Orbitrap LC-MS/MS of S-thioallylated Cys peptides (+72 Da) (YxjG; [2]) | shotgun Orbitrap LC-MS/MS of S-thioallylated Cys peptides (+72 Da) (TufA (EF-Tu); [2]) | IP and Orbitrap LC-MS/MS of S-thioallylated Cys peptides (+72 Da) (OhrR-FLAG) | shotgun Orbitrap LC-MS/MS of S-thioallylated Cys peptides (+72 Da) (SerA; [2]) | shotgun Orbitrap LC-MS/MS of S-thioallylated Cys peptides (+72 Da) (MetE; [2]) | shotgun Orbitrap LC-MS/MS of S-thioallylated Cys peptides (+72 Da) (GuaB; [2]) | shotgun Orbitrap LC-MS/MS of S-thioallylated Cys peptides (+72 Da) (PpaC; [2]) | IP and Orbitrap LC-MS/MS of S-thioallylated Cys peptides (+72 Da) (YodB) | shotgun Orbitrap LC-MS/MS of S-thioallylated Cys peptides (+72 Da) (FusA (EF-G); [2]) |
| --- | --- | --- | --- | --- | --- | --- | --- | --- | --- | --- | --- | --- | --- | --- | --- | --- | --- | --- | --- | --- |
| C=CCSSSSCC=C [DAS4] | MetE, YxjG, MetI, AroA, ArgJ, CarB, GlnA | TufA, MetE, YxjG, GuaB, SerA, and PpaC were modified at their redox-sensitive Cys residues | modified at their conserved Cys residues, e.g., Cys83 of TufA | SerA, and PpaC were modified at their redox-sensitive Cys residues by allicin and DAS4 | Cys239 of FusA, and Cys719/Cys730 of MetE | GuaB and PpaC were S-thioallylated at their conserved redox-sensing active sites Cys308 and Cys158 | pyrophosphatase PpaC were S-thioallylated by allicin and DAS4 in B. subtilis | Cys83 of TufA, Cys239 of FusA |  |  |  |  |  |  |  |  |  |  |  |  |
| C=CCS[S+]([O-])CC=C (centres unmarked) [allicin] |  |  |  |  |  |  |  |  | modified by S-thioallylation for OhrR (Cys15), HypR (Cys14), and CatR (Cys7) | MetE, YxjG, MetI, AroA, ArgJ, CarB, GlnA | modified by S-thioallylation for OhrR (Cys15), HypR (Cys14), and CatR (Cys7) | TufA, MetE, YxjG, GuaB, SerA, and PpaC were modified at their redox-sensitive Cys residues | modified at their conserved Cys residues, e.g., Cys83 of TufA | modified by S-thioallylation for OhrR (Cys15), HypR (Cys14), and CatR (Cys7) | SerA, and PpaC were modified at their redox-sensitive Cys residues by allicin and DAS4 | Cys239 of FusA, and Cys719/Cys730 of MetE | GuaB and PpaC were S-thioallylated at their conserved redox-sensing active sites Cys308 and Cys158 | pyrophosphatase PpaC were S-thioallylated by allicin and DAS4 in B. subtilis | For the YodB-repressor, only Cys101 was S-thioallylated | Cys83 of TufA, Cys239 of FusA |
